Assays:
planktonic bacteria = test: Cooling tower field test with floater dispenser, Example 5: planktonic plate counts; details: substantially continuous dosing from floater, 0.15 to 0.2 ppm of free halogen as Br2
Protocol: Another field test was carried out in the cooling tower described in Example 2 above. In this field test the cooling tower water was substantially continuously dosed with DBDMH using a Rainbow Lifeguard swimming pool floater having a capacity of about 3 lbs of granules, with the slots in the wide open position. This floater, charged with DBDMH granules, was placed and secured in the tower basin, a very convenient location for addition of the biocide when needed. The floater delivered a dose of “free halogen” to maintain a dosage level in the range of 0.15 to 0.2 ppm of free halogen as Br2.
The granules of DBDMH used in Examples 2-5 have an average size in the range of about 40 U.S. standard mesh size to about ⅜-inch, and an average crush strength of at least 15 pounds per inch of thickness. The combination of the low water solubility of DBDMH coupled with its use in granular form provided a slow but continuous or substantially continuous automatic dosing of the cooling tower water so that a biocidally effective level of free bromine was maintained in the water during the entire test, with relatively infrequent refilling of the dispenser being required.

heterotrophic bacteria = test: Cooling tower field trial, Example 2: heterotrophic bacteria plate counts; details: slug dose 3 times/week, 0.5 ppm free Cl2; cooling tower water
Description: The effectiveness of DBDMH and of BCDMH in microbiological control in cooling tower water was investigated in comparative tests. The cooling tower consisted of two 500-ton units in a crossflow design. The total system-contained volume was 14,000 gallons, and the tower contained medium efficiency film fill. Water from the tower cooled the coils of two 300-ton air conditioners (chillers). The tower typically operated at a pH of about 9.1 and 4 cycles of concentration. Blowdown was controlled by conductivity. Make-up water consisted of softened city water and which was of good quality. The make-up water was very low in calcium (<10 mg/L) but high in pH (8.7). The alkalinity was 145 mg/L (as CaCO3), and the silica level was 28 mg/L. The tower employed a conventional polyphosphate/molybdate/phosphonate program to provide corrosion and deposit control.
The BCDMH (20 lbs) was introduced to the water using 20-gram, 1-inch tablets charged to a solid halogen feeder (Neptune model BT-40, Neptune Chemical Pump Co., Inc., Lansdale, Pa.). Before each dose, the cooling tower water was sampled and enumerated for heterotrophic bacteria plate counts. Then the tower was slug dosed three times a week with BCDMH. Slug dosing was accomplished by diverting through the feeder containing the tablets a sidestream of the recirculating water for about 1 to 5 hours until a “free chlorine” dose of about 0.5 mg/L (as “free chlorine”) was obtained. The “total chlorine” dose was measured at the same time. After each dose the cooling water was sampled and enumerated for heterotrophic bacteria plate counts. As necessary, the feeder was replenished with more BCDMH tablets.
For example, before the biocide dose the bacteria levels in the bulk water ranged from 10^5 to 10^4 CFUs/mL. After the biocide dose the bacteria levels in the bulk water were reduced to 10^4 to 10^3.
After emptying the feeder of BCDMH tablets, 20 lbs of DBDMH granules was charged into the feeder. Thereupon the same procedure as described above for the BCDMH was carried out except for the fact that is was unnecessary to add any additional DBDMH to the feeder during the 30-day test period. In fact, the total weight of DBDMH consumed during the test was only 7 lbs.

[1] = Iodometric titration of clear saturated stock solutions; format: physicochemical; details: 1 gram powder slurried in 100 mL deionized water, stirred 20 minutes, filtered
Protocol: Stock solutions of DBDMH and of BCDMH were prepared by slurrying 1 gram of the respective powders in 100 mL of deionized water. After stirring for 20 minutes, the insolubles were filtered to yield clear saturated stock solutions of DBDMH and BCDMH, respectively. Iodometric titration of the stock solutions using the potassium iodide-sodium thiosulfate method indicated the DBDMH solution contained 580 mg/L (as total chlorine), and the BCDMH solution contained 1100 mg/L (as total chlorine).

- halogen content of saturated stock solution (as total chlorine) [1]: 580 mg/L
Structure (SMILES): CC1(C)C(=O)N(Br)C(=O)N1Br [DBDMH, 1,3-dibromo-5,5-dimethylhydantoin]
- planktonic plate counts (planktonic bacteria): less than 10^4 CFU/mL
- Bacteria reduction (heterotrophic bacteria): 1.5-2 logs

Source: patent publication US7579018B2, “Microbiological control in aqueous systems” (Albemarle Corporation, priority 2000, dated 2009)
